Data published in ChEMBL document CHEMBL3259552, “Tetra-substituted imidazoles as a new class of inhibitors of the p53-MDM2 interaction” (Bioorg Med Chem Lett, 2014).

Experiments:
SJSA-1 = test: Antiproliferative activity against human SJSA1 cells expressing wild-type p53 after 72 hrs by fluorescence plate reader analysis; format: functional, cell-based; conditions: SJSA-1, 72 h
[1] = Antiproliferative activity against p53-deficient human Saos2 cells after 72 hrs by fluorescence plate reader analysis; format: functional, cell-based; conditions: SAOS-2, 72 h
[2] = molecular target: E3 ubiquitin-protein ligase Mdm2 (Homo sapiens, UniProt Q00987); test: Inhibition of MDM2 (unknown origin) (2 to 188) assessed as inhibition of p53-MDM2 interaction by TR-FRET assay
E3 ubiquitin-protein ligase Mdm2, sequence (Q00987 whole entry): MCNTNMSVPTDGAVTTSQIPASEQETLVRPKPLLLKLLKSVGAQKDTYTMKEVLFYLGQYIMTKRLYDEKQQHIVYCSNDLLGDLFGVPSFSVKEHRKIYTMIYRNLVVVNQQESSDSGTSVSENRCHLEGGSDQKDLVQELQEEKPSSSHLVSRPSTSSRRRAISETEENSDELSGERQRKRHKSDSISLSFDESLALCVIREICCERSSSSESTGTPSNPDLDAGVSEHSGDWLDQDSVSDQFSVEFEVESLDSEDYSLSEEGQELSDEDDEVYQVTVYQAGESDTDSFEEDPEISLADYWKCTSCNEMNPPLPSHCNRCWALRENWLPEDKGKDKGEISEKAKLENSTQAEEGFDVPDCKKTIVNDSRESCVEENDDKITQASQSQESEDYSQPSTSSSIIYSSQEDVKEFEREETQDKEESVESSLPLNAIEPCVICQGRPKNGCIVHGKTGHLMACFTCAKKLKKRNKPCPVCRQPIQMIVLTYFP

| Structure (SMILES) | IC50 (SJSA-1) [µM] | IC50 [1] [µM] | IC50 [2] [µM] |
| --- | --- | --- | --- |
| Fc1ccc(-c2c(-c3nnn[nH]3)nc(C3CCCCC3)n2-c2cccc(Cl)c2F)cc1Cl | 4.4 | > 30 |  |
| CC(C)(C)NC(=O)Cc1ccc(Cl)c(F)c1-n1c(C2CCCCC2)nc(-c2nnc(N)o2)c1-c1ccc(F)c(Cl)c1 | 0.5 | 23 |  |
| Cc1cccc(-c2nc(C(=O)O)c(-c3cccc(Cl)c3)n2-c2cc(Cl)ccc2C)c1 | 10.2 | > 30 |  |
| Nc1nnc(-c2nc(C3CCCCC3)n(-c3c(CC(=O)NC4CCCCC4)ccc(Cl)c3F)c2-c2ccc(F)c(Cl)c2)o1 | 1.4 | 28 |  |
| NC(=O)c1nc(C2CCCCC2)n(-c2cccc(Cl)c2F)c1-c1ccc(F)c(Cl)c1 | 4.1 | 29 |  |
| O=C(O)c1nc(-c2ccccc2)n(-c2cccc(Cl)c2F)c1-c1ccc(F)c(Cl)c1 | 14 | > 30 |  |
| Cc1nnc(-c2nc(C3CCCCC3)n(-c3cccc(Cl)c3F)c2-c2ccc(F)c(Cl)c2)o1 | 5.9 | > 30 |  |
| O=C(O)c1nc(-c2ccccc2)n(-c2cccc(Cl)c2)c1-c1cccc(Cl)c1 |  |  | 0.12 |
| Nc1nnc(-c2nc(C3CCCCC3)n(-c3cccc(Cl)c3F)c2-c2ccc(F)c(Cl)c2)o1 | 3.5 | > 30 |  |
| O=C(O)c1nc(C2CCCCC2)n(-c2cccc(Cl)c2F)c1-c1ccc(F)c(Cl)c1 | 13.2 | > 30 |  |
| Nc1nnc(-c2nc(C3CCCCC3)n(-c3c(CC(=O)Nc4ccccc4)ccc(Cl)c3F)c2-c2ccc(F)c(Cl)c2)o1 | 2.5 | 30 |  |
| O=C(O)c1nc(-c2ccccc2)n(-c2cccc(Cl)c2F)c1-c1cccc(Cl)c1 | 12.2 | > 30 |  |
| CNC(=O)Cc1ccc(Cl)c(F)c1-n1c(C2CCCCC2)nc(-c2nnc(N)o2)c1-c1ccc(F)c(Cl)c1 | 1.4 | 24 |  |
| Cc1ccc(Cl)cc1-n1c(-c2ccccc2)nc(C(=O)O)c1-c1cccc(Cl)c1 | 16.1 | > 30 |  |
